pIC50: −log10 of the molar value.
Key:
Type in all cases: cell-based
[1] = test system: DOHH2 cells; assay: DOHH2 Long Term Phenotypic Assay (7 days, Cell Titer-Glo viability); conditions: Homo sapiens, DOHH-2, 168 h, Cell Titer-Glo 2.0
Summary of the method: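 DOHH2 lymphoma cells (250 per well) in RPMI-1640 with 10% FBS were exposed to 1:3 serially diluted compounds for 7 days at 37 °C, 5% CO2. Viability was read by CellTiter-Glo 2.0 luminescence, and IC50 values came from four-parameter logistic fits.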

[2] = target: PRMT1 (Homo sapiens, UniProt Q99873); assay: PRMT1 RKO Cellular Target Engagement Assay (In-Cell Western, asymmetric di-methyl arginine); conditions: RKO cells, 48 hr compound incubation; read-out: RKO IC50 (PRMT-1 Target Engagement)
Chain of PRMT1 (Q99873 whole entry): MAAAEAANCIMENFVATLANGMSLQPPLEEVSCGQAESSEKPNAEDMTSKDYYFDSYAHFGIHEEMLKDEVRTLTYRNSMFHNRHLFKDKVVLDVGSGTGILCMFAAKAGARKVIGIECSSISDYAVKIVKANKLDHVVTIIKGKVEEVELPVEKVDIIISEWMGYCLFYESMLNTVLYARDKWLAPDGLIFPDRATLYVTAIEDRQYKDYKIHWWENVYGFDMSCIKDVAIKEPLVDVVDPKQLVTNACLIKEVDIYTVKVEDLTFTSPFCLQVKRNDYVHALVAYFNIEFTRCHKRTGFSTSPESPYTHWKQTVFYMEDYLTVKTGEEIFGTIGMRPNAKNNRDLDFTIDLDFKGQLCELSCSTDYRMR
Summary of the method: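 RKO cells (1,000/well) received 1:3 serially diluted compound for 48 h at 37 °C, then were fixed, permeabilised and immunostained for asymmetric di-methyl arginine by In-Cell Western. The 800 nm antibody signal was normalised to CellTag 700 nm; IC50 from four-parameter logistic fit.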

[3] = test system: PATC53 cells; assay: PATC53 Long Term Phenotypic Assay (14 days, crystal violet viability); conditions: 336 h
Summary of the method: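 Cells seeded at 250 per well, allowed 24 h to settle, then treated with 1:3 serial dilutions of compound for 14 days at 37 °C, 5% CO2. Viability measured by crystal violet staining, solubilised in 10% HOAc, absorbance 590 nm; IC50 from four-parameter logistic fit.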

pIC50 [2]	SMILES	pIC50 [1]	pIC50 [3]
6.86	CNCCN(C)Cc1nn2c(c1C1CCC(COC)(COC)CC1)CN(C(=O)C1CCC1)CC2 [Example 1, (3-(4,4-Bis(methoxymethyl)cyclohexyl)-2-((methyl(2-(methylamino)ethyl)amino)methyl)-6,7-dihydropyrazolo[1,5-a]pyrazin-5(4H)-yl)(cyclobutyl)methanone]	7.18	7.35
6.51	COCC1(COC)CCC(c2c(CN(C)CCN)nn3c2CN(C(=O)C(C)(C)C)CC3)CC1 [Example 2, 1-(2-(((2-aminoethyl)(methyl)amino)methyl)-3-(4,4-bis(methoxymethyl)cyclohexyl)-6,7-dihydropyrazolo[1,5-a]pyrazin-5(4H)-yl)-2,2-dimethylpropan-1-one]	6.80	6.82
